{"source": "paper PMC4800267", "about": "(Assay and Drug Development Technologies, 2016)", "key": {"hNav1.5": {"test_system": "hNav1.5", "details": "hNav1.5 on QPatch; cited from earlier work"}, "hNav1.7": {"target": "hNav1.7 (Homo sapiens, UniProt Q15858)", "sequence (Q15858 whole entry)": "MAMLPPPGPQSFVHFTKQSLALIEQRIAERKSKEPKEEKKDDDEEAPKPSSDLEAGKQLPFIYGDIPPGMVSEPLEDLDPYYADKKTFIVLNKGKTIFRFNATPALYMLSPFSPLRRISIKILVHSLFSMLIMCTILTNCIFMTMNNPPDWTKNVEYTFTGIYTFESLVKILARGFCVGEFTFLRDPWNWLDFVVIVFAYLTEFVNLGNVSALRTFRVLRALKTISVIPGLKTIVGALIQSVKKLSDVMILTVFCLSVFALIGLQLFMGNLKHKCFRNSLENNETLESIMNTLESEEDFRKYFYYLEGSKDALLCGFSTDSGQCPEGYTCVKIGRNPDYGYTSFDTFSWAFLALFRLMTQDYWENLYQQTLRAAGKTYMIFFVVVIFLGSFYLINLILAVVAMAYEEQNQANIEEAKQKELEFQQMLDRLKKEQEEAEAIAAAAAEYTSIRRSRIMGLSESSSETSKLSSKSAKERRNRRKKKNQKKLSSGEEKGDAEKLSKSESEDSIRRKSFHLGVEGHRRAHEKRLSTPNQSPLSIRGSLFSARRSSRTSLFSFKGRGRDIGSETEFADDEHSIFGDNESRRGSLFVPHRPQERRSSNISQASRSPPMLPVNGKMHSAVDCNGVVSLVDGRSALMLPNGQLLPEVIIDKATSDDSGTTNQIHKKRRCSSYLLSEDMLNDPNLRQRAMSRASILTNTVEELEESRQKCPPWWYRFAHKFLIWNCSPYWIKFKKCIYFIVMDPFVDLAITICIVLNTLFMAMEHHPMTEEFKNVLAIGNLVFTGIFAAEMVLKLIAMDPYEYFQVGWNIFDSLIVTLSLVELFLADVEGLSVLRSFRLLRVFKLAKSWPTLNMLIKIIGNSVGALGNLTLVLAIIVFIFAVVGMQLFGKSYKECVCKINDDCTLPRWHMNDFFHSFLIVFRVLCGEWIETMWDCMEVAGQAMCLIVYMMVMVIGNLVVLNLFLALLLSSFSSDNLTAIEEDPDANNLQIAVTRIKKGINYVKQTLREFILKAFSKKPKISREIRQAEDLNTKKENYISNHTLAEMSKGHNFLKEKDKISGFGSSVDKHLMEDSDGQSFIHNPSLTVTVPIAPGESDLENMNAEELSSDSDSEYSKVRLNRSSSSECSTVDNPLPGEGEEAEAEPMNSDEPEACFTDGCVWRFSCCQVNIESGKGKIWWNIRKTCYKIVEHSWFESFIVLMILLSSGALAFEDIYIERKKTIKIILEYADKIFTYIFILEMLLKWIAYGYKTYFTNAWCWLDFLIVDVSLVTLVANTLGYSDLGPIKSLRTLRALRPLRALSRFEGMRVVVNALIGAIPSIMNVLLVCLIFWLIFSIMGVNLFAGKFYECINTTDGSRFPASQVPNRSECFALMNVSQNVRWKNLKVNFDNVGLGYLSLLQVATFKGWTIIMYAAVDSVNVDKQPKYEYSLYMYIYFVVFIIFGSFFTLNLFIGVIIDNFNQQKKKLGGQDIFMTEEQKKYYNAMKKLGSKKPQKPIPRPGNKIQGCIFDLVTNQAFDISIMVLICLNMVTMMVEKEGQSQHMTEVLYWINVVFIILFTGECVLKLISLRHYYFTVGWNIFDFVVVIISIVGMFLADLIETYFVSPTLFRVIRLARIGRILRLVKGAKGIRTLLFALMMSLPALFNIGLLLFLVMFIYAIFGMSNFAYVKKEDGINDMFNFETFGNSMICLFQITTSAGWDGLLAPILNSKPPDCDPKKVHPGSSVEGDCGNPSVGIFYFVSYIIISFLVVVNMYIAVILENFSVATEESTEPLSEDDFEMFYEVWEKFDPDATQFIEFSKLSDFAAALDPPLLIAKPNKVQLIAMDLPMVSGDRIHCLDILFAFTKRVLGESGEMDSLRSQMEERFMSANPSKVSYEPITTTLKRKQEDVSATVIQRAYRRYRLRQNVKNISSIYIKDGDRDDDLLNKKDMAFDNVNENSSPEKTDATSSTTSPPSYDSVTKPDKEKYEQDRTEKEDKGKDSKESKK", "details": "hNav1.7 in Xenopus oocytes; cited from earlier work"}, "[1]": {"test_system": "endogenous TTX-S currents in ND7-23 cells", "experiment": "cells", "type": "cell-based, rodent", "details": "for effect on resting- or inactivated-state TTX-S currents: 300 nM"}, "hNav1.3": {"target": "hNav1.3 (Homo sapiens, UniProt Q9NY46)", "sequence (Q9NY46 whole entry)": "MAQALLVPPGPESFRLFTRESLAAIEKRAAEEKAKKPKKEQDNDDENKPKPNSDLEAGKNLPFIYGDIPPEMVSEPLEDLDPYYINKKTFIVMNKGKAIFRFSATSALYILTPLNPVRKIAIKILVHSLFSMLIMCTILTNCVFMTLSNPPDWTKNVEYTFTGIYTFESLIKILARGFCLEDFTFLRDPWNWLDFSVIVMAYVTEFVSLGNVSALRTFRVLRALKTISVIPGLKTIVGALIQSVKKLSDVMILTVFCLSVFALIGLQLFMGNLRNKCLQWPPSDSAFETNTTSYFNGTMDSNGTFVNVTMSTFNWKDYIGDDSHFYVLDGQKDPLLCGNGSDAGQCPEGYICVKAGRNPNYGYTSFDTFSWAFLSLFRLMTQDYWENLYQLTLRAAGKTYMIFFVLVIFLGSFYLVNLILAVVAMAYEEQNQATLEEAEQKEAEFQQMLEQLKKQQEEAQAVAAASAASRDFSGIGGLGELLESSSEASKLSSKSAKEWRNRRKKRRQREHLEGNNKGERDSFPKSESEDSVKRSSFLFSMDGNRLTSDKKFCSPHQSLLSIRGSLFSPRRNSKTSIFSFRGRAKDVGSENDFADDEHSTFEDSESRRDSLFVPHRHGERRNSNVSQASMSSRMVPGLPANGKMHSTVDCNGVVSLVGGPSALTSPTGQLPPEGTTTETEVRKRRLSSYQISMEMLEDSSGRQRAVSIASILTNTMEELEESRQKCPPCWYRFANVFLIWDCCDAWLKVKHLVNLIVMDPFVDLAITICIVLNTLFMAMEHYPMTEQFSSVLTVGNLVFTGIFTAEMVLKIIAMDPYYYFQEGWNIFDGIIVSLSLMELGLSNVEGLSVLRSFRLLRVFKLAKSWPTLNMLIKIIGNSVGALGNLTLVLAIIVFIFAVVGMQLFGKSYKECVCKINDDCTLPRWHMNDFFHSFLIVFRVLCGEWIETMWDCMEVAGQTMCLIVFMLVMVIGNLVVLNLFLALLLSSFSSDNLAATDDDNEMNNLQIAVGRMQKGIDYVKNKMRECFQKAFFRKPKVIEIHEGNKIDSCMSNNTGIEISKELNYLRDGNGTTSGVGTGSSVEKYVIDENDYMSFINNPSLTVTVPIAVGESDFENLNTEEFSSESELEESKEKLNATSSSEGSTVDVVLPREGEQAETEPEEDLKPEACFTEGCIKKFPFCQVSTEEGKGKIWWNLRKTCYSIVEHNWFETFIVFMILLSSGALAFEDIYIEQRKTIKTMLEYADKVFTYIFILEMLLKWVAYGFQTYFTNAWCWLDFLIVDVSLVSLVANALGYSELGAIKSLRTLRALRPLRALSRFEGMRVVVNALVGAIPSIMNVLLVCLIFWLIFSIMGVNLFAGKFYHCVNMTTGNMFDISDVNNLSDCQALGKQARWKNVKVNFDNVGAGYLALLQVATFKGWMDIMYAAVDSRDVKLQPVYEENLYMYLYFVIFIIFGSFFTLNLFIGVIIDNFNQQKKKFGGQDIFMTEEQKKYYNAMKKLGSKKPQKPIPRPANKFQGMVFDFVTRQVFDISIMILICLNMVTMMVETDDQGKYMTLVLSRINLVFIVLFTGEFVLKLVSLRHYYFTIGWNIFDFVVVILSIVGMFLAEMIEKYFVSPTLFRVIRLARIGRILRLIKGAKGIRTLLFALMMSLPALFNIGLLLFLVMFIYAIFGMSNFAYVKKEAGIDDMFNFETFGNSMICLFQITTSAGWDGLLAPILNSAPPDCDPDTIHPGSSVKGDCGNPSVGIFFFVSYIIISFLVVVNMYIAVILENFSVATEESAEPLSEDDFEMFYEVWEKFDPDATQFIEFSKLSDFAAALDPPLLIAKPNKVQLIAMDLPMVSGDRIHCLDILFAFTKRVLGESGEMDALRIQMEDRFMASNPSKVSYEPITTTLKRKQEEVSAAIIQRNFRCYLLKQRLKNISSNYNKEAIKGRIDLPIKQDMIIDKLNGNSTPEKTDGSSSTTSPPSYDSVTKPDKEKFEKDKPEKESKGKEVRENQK", "type": "cell-based", "details": "inactivated-state Peak 2"}, "rNav1.4": {"test_system": "rNav1.4", "details": "rNav1.4 in Xenopus oocytes; cited from earlier work"}, "mNav1.6": {"test_system": "mNav1.6", "details": "mNav1.6 in Xenopus oocytes; cited from earlier work"}, "Nav1.3": {"test_system": "Nav1.3", "details": "read-out: IC50 Nav1.3; cited from earlier work"}, "Nav1.1": {"test_system": "Nav1.1", "details": "read-out: IC50 Nav1.1; cited from earlier work"}, "rat Nav1.7": {"test_system": "rat Nav1.7", "details": "cited from earlier work"}}, "note": "Where “and” joins values, the source holds several entries; their conditions need not be identical. Equal values may be shown once. Entries after “also recorded” stand apart in the source; their conditions may differ. Read-outs that look alike come from different tables or passages of the source.", "data": [{"smiles": "O=C(Nc1ccc(S(=O)(=O)Nc2nccs2)cc1)[C@@H]1C[C@H]1c1ccccc1", "note": "[Icagen compound 68, (1R,2R)-2-phenyl-N-(4-(N-(thiazol-2-yl)sulfamoyl)phenyl)cyclopropane-1-carboxamide]", "values": [{"measurement": "effects on resting or inactivated current amplitudes", "setting": "hNav1.5", "value": "no significant effects"}, {"measurement": "effects on resting or inactivated current amplitudes", "setting": "hNav1.7", "value": "no significant effects"}, {"measurement": "effect on resting- or inactivated-state TTX-S currents", "setting": "[1]", "value": "no effect; also recorded: negligible effects"}, {"measurement": "effect on resting- or inactivated-state TTX-S currents", "setting": "[1]; listed as Icagen Nav1.3 antagonist", "value": "no significant effect"}, {"measurement": "reduction of resting-state Peak 1 TTX-S current", "setting": "[1]; 1 μM, Peak 1, mean ± SEM", "value": "0.7% ± 3.0%"}, {"measurement": "reduction of inactivated Peak 2 TTX-S current", "setting": "[1]; 1 μM, Peak 2, mean ± SEM", "value": "8.5% ± 1.7% and 8.5%"}, {"measurement": "inhibition at 0.3 µM", "setting": "[1]; ND7/23, read-out: ND7-23 TTX-S % Inhibition, Peak 1", "value": 0.8, "unit": "%"}, {"measurement": "inhibition at 0.3 µM", "setting": "[1]; ND7/23, read-out: ND7-23 TTX-S % Inhibition, Peak 2", "value": -0.5, "unit": "%"}, {"measurement": "IC50", "setting": "[1]; ND7/23, read-out: ND7-23 TTX-S IC50, Peak 1", "value": "> 10", "unit": "µM"}, {"measurement": "IC50", "setting": "[1]; ND7/23, read-out: ND7-23 TTX-S IC50, Peak 2", "value": "> 10", "unit": "µM"}, {"measurement": "inhibition at 0.3 µM", "setting": "[1]; ND7/23, read-out: inhibition of inward TTX-S currents", "value": "~0.5", "unit": "%"}, {"measurement": "inhibition of TTX-S currents, maximum over all concentrations tested", "setting": "[1]; all test concentrations", "value": "< 50", "unit": "%"}, {"measurement": "hillslope, Peak 2", "setting": "hNav1.3", "value": 1.2}, {"measurement": "effects on resting or inactivated current amplitudes", "setting": "rNav1.4", "value": "no significant effects"}, {"measurement": "effects on resting or inactivated current amplitudes", "setting": "mNav1.6", "value": "no significant effects"}]}, {"smiles": "O=C(Nc1ccc(S(=O)(=O)Nc2nccs2)cc1)C(c1ccccc1)c1ccccc1", "note": "[ICA-121431]", "values": [{"measurement": "IC50", "setting": "Nav1.3", "value": "~20", "unit": "nM"}, {"measurement": "IC50", "setting": "Nav1.1", "value": "~20", "unit": "nM"}, {"measurement": "potency against rat Nav1.7 channels", "setting": "rat Nav1.7", "value": "low nanomolar potency"}]}]}
